Measurements published in patent publication US6806230B1, “Pyrimidine derivatives and herbicides containing them” (Kumiai Chemical Industry Co., Ltd., priority 1999, dated 2004).

Tests used:
Assay type in all cases: in vivo
[1] = system: barnyard grass (Eo); assay: Test Example 1: herbicidal effects by flooded paddy field treatment; parameters: herbicidal effects, Eo (barnyard grass):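 0-5 growth inhibition grade; 5 = over 90%; 4 = 70-90%; 3 = 50-70%; 2 = 30-50%; 1 = 10-30%; 0 = under 10%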; details: for Herbicidal effect index, Eo: dose 100 gai/10a, examined on 21st day after treatment, index 0-5 per Table 44; for herbicidal effects, Eo (barnyard grass): dose 100 g active ingredient per 10 ares, examined on the 21st day after treatment, standards of Table 44;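 on Herbicidal effect index, Eo: 0-5 growth inhibition grade; 5 = over 90%; 4 = 70-90%; 3 = 50-70%; 2 = 30-50%; 1 = 10-30%; 0 = under 10%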
Procedure: (§1) In a 100 cm^2 plastic pot, paddy field soil was filled and paddled. Then, seeds of barnyard grass (Eo) and monochoria (Mo) were sown, and water was introduced to a depth of 3 cm. Next day, a wettable powder prepared in accordance with Formulation Example 1 was diluted with water and dropwise applied to the water surface. The dose was 100 g of the active ingredient per 10 ares. Thereafter, cultivation was carried out in a green house, and on the 21st day after the treatment, the herbicidal effects were examined in accordance with the standards as identified in Table 44.

[2] = system: monochoria (Mo); assay: Test Example 4: selectivity for a crop plant by flooded paddy field treatment; parameters: scale not given here; details: for Mo (herbicidal effects, index): dose 25 g active ingredient per 10 ares, examined on the 21st day after treatment; for Mo (herbicidal effect index): monochoria, dose 25 gai/10a, 21st day after treatment, index per Table 44
Procedure: as §1, with “pot, a” for “pot,”, “sown, and rice (Or) of second leaf stage was transplanted,” for “sown,”, “was 25” for “was 100”, “standards of” for “standards as identified in”

[3] = system: rice (Or); assay: as above; parameters: scale not given here; details: rice transplanted at second leaf stage; for Or (effect on crop plant rice, index): dose 25 g active ingredient per 10 ares, examined on the 21st day after treatment; for Or (herbicidal effect index on crop): dose 25 gai/10a, 21st day after treatment, index per Table 44
Procedure: as §1, with “pot, a” for “pot,”, “sown, and rice (Or) of second leaf stage was transplanted,” for “sown,”, “was 25” for “was 100”, “standards of” for “standards as identified in”

[4] = system: barnyard grass (Eo); assay: as above; parameters: scale not given here; details: for Eo (herbicidal effects, index): dose 25 g active ingredient per 10 ares, examined on the 21st day after treatment; for Eo (herbicidal effect index): barnyard grass, dose 25 gai/10a, 21st day after treatment, index per Table 44
Procedure: as §1, with “pot, a” for “pot,”, “sown, and rice (Or) of second leaf stage was transplanted,” for “sown,”, “was 25” for “was 100”, “standards of” for “standards as identified in”

[5] = system: monochoria (Mo); assay: Test Example 1: herbicidal effects by flooded paddy field treatment; parameters: herbicidal effects, Mo (monochoria):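 0-5 growth inhibition grade; 5 = over 90%; 4 = 70-90%; 3 = 50-70%; 2 = 30-50%; 1 = 10-30%; 0 = under 10%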; details: for Herbicidal effect index, Mo: dose 100 gai/10a, examined on 21st day after treatment, index 0-5 per Table 44; for herbicidal effects, Mo (monochoria): dose 100 g active ingredient per 10 ares, examined on the 21st day after treatment, standards of Table 44;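 on Herbicidal effect index, Mo: 0-5 growth inhibition grade; 5 = over 90%; 4 = 70-90%; 3 = 50-70%; 2 = 30-50%; 1 = 10-30%; 0 = under 10%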
Procedure: as §1

[6] = system: barnyard grass (Ec); assay: Test Example 2: herbicidal effects by upland soil treatment; parameters: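 0-5 growth inhibition grade; 5 = over 90%; 4 = 70-90%; 3 = 50-70%; 2 = 30-50%; 1 = 10-30%; 0 = under 10%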; details: dose 100 g active ingredient per 10 ares, examined on the 21st day after treatment
Procedure: In a 80 cm^2 plastic pot, upland soil was filled, and seeds of barnyard grass (Ec) and green foxtail (Se) were sown and covered with soil. A wettable powder prepared in accordance with Formulation Example 1 was diluted with water and uniformly applied to the soil surface by means of a small size spray at a rate of 100 l per 10 ares, so that the dose of the active ingredient would be 100 g per 10 ares. Thereafter, cultivation was carried out in a green house, and on the 21st day after the treatment, the herbicidal effects were examined in accordance with the standards as identified in Table 44.

| SMILES | Herbicidal effect index, Eo [1] | Mo (herbicidal effects, index) [2] | Or (effect on crop plant rice, index) [3] | Eo (herbicidal effects, index) [4] | Herbicidal effect index, Mo [5] | herbicidal effects, Eo (barnyard grass) [1] | Mo (herbicidal effect index) [2] | Or (herbicidal effect index on crop) [3] | Eo (herbicidal effect index) [4] | herbicidal effects, Mo (monochoria) [5] | Ec (herbicidal effects, index) [6] |
| --- | --- | --- | --- | --- | --- | --- | --- | --- | --- | --- | --- |
| O=C(Cc1ccc(C(F)(F)F)cc1)NC(c1cncnc1C(F)(F)Cl)C1CC1 (racemic) [Compound 1-4] | 5 | 4 | 1 | 5 | 5 | – | – | – | – | – | – |
| C#CCN(C(=O)Cc1ccc(Cl)cc1F)C(c1cncnc1C(F)(F)F)C(C)C (racemic) [1-615] | – | – | – | – | – | 5 | 5 | 1 | 5 | 5 | – |
| CC(c1cncnc1C(C)(C)C)N(C)C(=O)Cc1ccc(F)cc1 (racemic) [1-189] | – | – | – | – | – | 5 | 5 | 0 | 5 | 5 | – |
| COc1ccc(C(c2cncnc2C(F)(F)F)N(C)C(=O)Cc2ccc(C)cc2)cc1 (racemic) [1-487] | – | – | – | – | – | 5 | 5 | 1 | 5 | 5 | – |
| COc1ccc(SC(=O)N(C)C(c2cncnc2C(F)(F)Cl)C(C)C)cc1 (racemic) [Compound 1-18] | 5 | 4 | 1 | 5 | 5 | – | – | – | – | – | – |
| CSc1ccc(CC(=O)N(C)C(c2cncnc2C(F)(F)F)C(C)C)cc1 (racemic) [Compound 1-44] | 5 | 5 | 0 | 5 | 5 | – | – | – | – | – | – |
| CC(C)C(c1cncnc1C(F)(F)F)N(C)C(=O)Cc1ccc(S(C)(=O)=O)cc1 (racemic) [Compound 1-104] | 5 | – | – | – | 5 | – | 5 | 1 | 5 | – | – |
| CC(c1cncnc1C(C)(C)C)N(C)C(=O)Cc1ccccc1 (racemic) [1-188] | – | – | – | – | – | 5 | 5 | 0 | 5 | 5 | – |
| CC(C)C(c1cncnc1C(F)(F)F)N(C)C(=O)C=Cc1ccc(Cl)cc1 (racemic) [Compound 1-86] | 5 | 5 | 0 | 5 | 5 | – | – | – | – | – | – |
| CC(C)C(c1cncnc1C(F)(F)F)N(C)C(=O)Cc1cccc(C(F)(F)F)c1 (racemic) [Compound 1-39] | 5 | 5 | 0 | 5 | 5 | – | – | – | – | – | – |
| CC(C)C(c1cncnc1C(F)(F)F)N(C)C(=O)CSc1ccc(Cl)cc1 (racemic) [1-183] | – | – | – | – | – | 5 | 5 | 0 | 5 | 5 | – |
| COCc1ncncc1C(C(C)C)N(C)C(=O)Cc1ccc(Cl)s1 (racemic) [2-77] | – | – | – | – | – | 5 | – | – | – | 5 | 5 |
| COC(=O)c1ncncc1C(C(C)C)N(C)C(=O)C(C)c1ccc(Cl)cc1 (single isomer, unassigned) [1-593] | – | – | – | – | – | 5 | 4 | 0 | 5 | 5 | – |
| COc1ccccc1C(c1cncnc1C(F)(F)F)N(C)C(=O)Cc1ccc(C)cc1 (racemic) [1-491] | – | – | – | – | – | 5 | 5 | 0 | 5 | 5 | – |
| CC(C)c1ncncc1C(C(C)C)N(C)C(=O)Cc1ccc(C(F)(F)F)cc1 (racemic) [1-310] | – | – | – | – | – | 5 | – | – | – | 5 | 5 |
